Laboratory results reported in US7314633B2, “Carboxylate-gated-nitroxide (CGN) compounds and compositions and methods of use thereof” (SynZyme Technologies LLC, priority 2001, dated 2008).

Tests used:
[1] = test system: hairless mice
Description: Topical application was daily 10 minutes prior to UVB radiation. UVB dose was 200 mJ/cm2 during 15 minutes. UVB lamp has spectrum distribution of 290-310 nm at 80% below 310 nm at 20%.
Same protocol as in example 13 was used for this study.

[2] = S-band EPR imaging of penetration and compartmentalization in human skin; format: in vivo; conditions: human volunteer forearm, 3 μL 100 mM in DMSO, topical, by eight hours
Description: Preliminary S-band EPR spectroscopy and imaging experiments using DETOPS were performed on the skin of a human volunteer. […] Five minutes later, when the deposited solution dried, a specially designed positioning holder with a 7 mm diameter well and bottom disk that locked into a well in the resonator cap was attached to the skin to fix this region of skin to the surface resonator See, “In vivo EPR Imaging of a Distribution and Metabolism of Nitroxide Radicals in Human Skin,” He et al., J. of Magnetic Resonance 148, 155-164 (2001). EPR and EPRI measurements were then started. Measurements on the volunteer were performed for 15 to 20 minutes periods after which there were 30-minute rest periods in which the volunteer removed the arm from the resonator and the magnet. This holder fixed the skin positioning and assured a constant filling factor of the loaded resonator. The positioning holder was left attached to the arm for the entire series of measurements lasting up to 8 hours.
Referring to FIG. 23, a color-coded image of CNO penetration and compartmentalization in human skin is shown. […] The measurements were performed using S-band (2.2 GHz) EPR imaging system with a specially designed surface resonator as described in He et al., J. of Magnetic Resonance 148, 155-164 (2001). The dotted line marks the surface of the skin. […]

[3] = Metabolism and excretion after topical application (EPR of urine and plasma); format: in vivo, mouse; conditions: after 6 hours; 10 day daily topical application
[4] = test system: Rhino mouse; experiment: Anti-wrinkle effect in Rhino mouse exposed to UVB; format: in vivo; conditions: compared with Retin-A
Description: To determine the advantage of CGN compared to commercially available topical therapies, BE-TOPS, Retin-A, and a placebo were administered to the skin of mice exposed to alternate days of UVB radiation.

[5] = test system: cultured rat cortical neurons; experiment: SIN-1 (peroxynitrite generator) toxicity in cultured rat cortical neurons (MTT); format: cell-based; conditions: SIN-1 1 mM, compound added 15 minutes prior
Description: Primary neuronal cultures were made from forebrains of fetal rat pups (embryonic day 15). The cells were dispersed by repeated mechanical trituration in neuronal culture medium (MEM Eagle (Sigma, M4526), supplemented with glutamine (2 mM), penicilin-streptomycine (50 Units/ml-0.05 mg/ml), heat-inactivated horse serum (10%), fetal bovine serum (10%), glucose (0.5% or 28 mM). Following centrifugation (900 g; 5 min), the cells were placed onto poly-L-lysine-coated 96 well plates at a density of […]. Cytotoxicity was induced in the cells according to a published procedure (Carroll et al 2000). SIN-1 (3-morpholinosydnonimine, Sigma), a PN generator, was dissolved in 50 mM phosphate (pH 5.0) just prior to use, and added to each well to give the final concentration of 1 mM. […] Neuronal viability was quantitatively determined using the colorimetric MTT assay. MTT was added to each well such that the final concentration of the dye was 0.15 mg/ml. Plates were then returned to the incubator for 1 hour at which time unincorporated MTT was removed, and the plates allowed to air dry. The purple formazan product present in viable cells was then dissolved by adding acidified isopropanol (with 0.1 N HCl in) and the absorbance intensity (540 nm) was measured using a 96 well plate reader. % Control=(Test A540/Mean Control)×100%.

[6] = Water/octanol partition measured by EPR; format: physicochemical; conditions: 15 minutes, TOPS = presumed product after NaOH hydrolysis of DE-TOPS
Description: (§1) After 15 minutes, a 40 μl sample of water or oil was taken for EPR spectral analysis. […] The solution was neutralized with hydrochloric acid and added to 1 ml of water and 2 ml of octanol. The mixture was allowed to partition, and after 15 minutes, a 40 μl sample of water or oil was taken for EPR spectral analysis. EPR spectral were taken using a Varian E9 spectrophotometer. Sweep width was 100 G, frequency was 9.535 GHz, microwave power was […] and the modulation frequency was 100 Hz.

[7] = Inhibition of peroxynitrite-dependent nitration of HPA; format: biochemical; conditions: 1 mM HPA, 1 mM peroxynitrite, pH 6.5
Description: Peroxynitrite was made by a procedure described previously. Solution of 1 mM 4-hydroxyphenylacetic acid (HPA, Sigma) were made in 100 mM sodium phosphate at pH 6.5. […] Peroxynitrite was added at a final concentration of 1 mM to start the nitration. […] The nitration was followed spectrophotometrically at 405 nm. The concentration of 4-hydroxy-3-nitrophenylacetate was determined spectrophotometrically (430=4400 M^−1 cm^−1) after the pH of reaction mixtures were increased to 10-11 with NaOH.

[8] = Chemical hydrolysis of esters by NaOH or KOH, followed by EPR; format: physicochemical; conditions: sodium hydroxide (NaOH), aqueous, EPR pre- and post-hydrolysis
Description: as §1
20 mg of ^14N-^15N-TE-TOPS was mixed in 1 ml of 10 mM KOH and allowed to incubate overnight at room temperature. The solution was neutralized with hydrochloric acid. EPR spectral were taken using a Varian E9 spectrophotometer. Sweep width was 100 G, frequency was 9.535 GHz, microwave power was […] and the modulation frequency was 100 Hz.

[9] = test system: cultured rat cortical neurons; experiment: Hemoglobin toxicity in cultured rat cortical neurons (MTT); format: cell-based; conditions: hemoglobin 10 uM, 24 hours
Description: E-TOPS is neuroprotective in a model of hemorrhagic transformation in stroke. Primary neuronal cultures were made from forebrains of fetal rat pups (embryonic day 15). The cells were dispersed by repeated mechanical trituration in neuronal culture medium (MEM Eagle (Sigma, M4526), supplemented with glutamine (2 mM), penicilin-streptomycine (50 Units/ml-0.05mg/ml), heat-inactivated horse serum (10%), fetal bovine serum (10%), glucose (0.5% or 28 mM). Following centrifugation (900 g; 5 min), the cells were placed onto poly-L-lysine-coated 96 well plates at a density of […]. Hemoglobin in saline was added at 10 uM final concentration and ETOPS were added at 10 uM, 1 uM, and 0.1 uM final concentration. 24 hours after incubation neuronal viability was quantitatively determined using the colorimetric MTT assay. MTT was added to each well such that the final concentration of the dye was 0.15 mg/ml. Plates were then returned to the incubator for 1 hour at which time unincorporated MTT was removed, and the plates allowed to air dry. The purple formazan product present in viable cells was then dissolved by adding acidified isopropanol (with 0.1 N HCl in) and the absorbance intensity (540 nm) was measured using a 96 well plate reader. % Control=(Test A540/Mean Control)×100%.

[10] = gold standard, previously shown; cited from earlier work
[11] = Acute toxicity LD50 / survival rate in mice; format: in vivo; conditions: mouse, in vivo
Description: (§2) As noted above, the practical, clinical application of unbound, small molecule nitroxides has been limited by the reduced activity in vivo and comparatively short in vivo half-life. The result of the reduced in vivo half-life is the need to administer a larger dose to achieve the same therapeutic or diagnostic effect.

[12] = test system: mice; experiment: Acute toxicity LD50 / survival rate in mice; format: in vivo; conditions: mice, dosage of 2.0 mmol/kg
Description: as §2

[13] = In vivo plasma half-life by EPR, co-administration of 14N E-TOPS and 15N Tempol
Description: Plasma half-life is measured by collecting the spectrum each minute for 60 to 90 minutes.

[14] = test system: human Y-79 cells; experiment: TNF-α induced apoptosis of Y-79 cells (annexin V flow cytometry); format: cell-based; conditions: Y-79 cell line, E-TOPS 100 μg/ml, TNF-α 5.0 ng/ml, 6, 24 and 48 hours
Description: The UV light induced apoptosis may be measured by a model in which apoptosis is induced by exposure to tumor necrosis factor alpha (TNF-α). […] Cultured human Y-79 cells were maintained at pH 7.4 in culture flasks in a mixture of amphotericin/penicillin/streptomycin treated (1% v/v) RPMI 1640 media with L-glutamine and 10% fetal bovine serum in an incubator under 10%-CO2/90%-air brood conditions at 37 degrees Celsius and 20% humidity. […] From this stock solution, 10 μl was added to 1 ml of the cell suspension solution so that the final concentration of ETOPS was 100 μg/ml of ETOPS. Human TNF-μ(10 μg/1 ml) was used to prepare serial media dilutions to obtain TNF-α concentrations of 5.0 ng/ml. Cell densities and viability were determined by trypan blue exclusion assay on a Zeiss inverted microscope to ensure cell concentrations prior to cytometric assaying. […]
Flow cytometric methods were employed to take advantage of annexin V's reversible and calcium-dependent binding to negatively charged phosphatidylserine (PS) residues in a 1:50 annexin to PS ratio. […] Total samplings averaged 5000 cell events counted out of sample populations averaging well over 1.0×10^6 cells/ml with statistics and regression analysis given for each set of sample quadrants using CellQuest softvare. […]

CCOC(=O)CC(C(=O)OCC)=C1CC(C)(C)N([O])C(C)(C)C1 [DE-TOPS, Di-ethyl-2,2,6,6-tetramethyl-1-oxy-4-piperidylidene-succinate]
skin thickening induced by UVB (histopathology) ([1]; 100 mM in petroleum base, topical daily 10 minutes prior to UVB, 11 days, 200 mJ/cm2): dramatically reduces skin thickening
UVB light induced skin thickening, hemorrhage, inflammation ([1]; applying pre and post radiation in mice): reduces UVB light induced skin thickening, hemorrhage, inflammation
UVB induced skin lesion, chronic ([1]; same mice kept for 4 month, applied 2 hour before UVB radiation): inhibited
distribution in skin layers compared to tempone (1-D EPR spatial image) [2]: enhanced visual distribution throughout the dermis and epidermis
EPR signal in urine compared with plasma [3]: stronger EPR signal
UVB sensitivity of treated skin [4]: not UVB sensitive
inhibition of peroxynitrite-induced (SIN-1) toxicity on cortical neurons [5]: dose dependent inhibition
partition coefficient (LogP) [6]: 1.7
inhibition of nitration of HPA by peroxynitrite [7]: inhibited
hydrolysis of DE-TOPS to TOPS [8]: near complete conversion
inhibition of hemoglobin-induced toxicity of cortical neurons [9]: dose dependent inhibition

CC1(C)CC(=C(CC(=O)O)C(=O)O)CC(C)(C)N1[O] [TOPS, 2,2,6,6-tetramethyl-1-oxyl-piperidinene-4-succinate]
inhibition of peroxynitrite-induced (SIN-1) toxicity on cortical neurons [5]: dose dependent inhibition
partition coefficient (LogP) [6]: −0.9
inhibition of nitration of HPA by peroxynitrite [7]: inhibited
inhibition of hemoglobin-induced toxicity of cortical neurons [9]: dose dependent inhibition

CC1(C)CC(O)CC(C)(C)N1[O] [Tempol, 4-hydroxy-2,2,6,6-tetramethylpiperidine-1-oxyl]
prevention of nitration of HPA by peroxynitrite in vitro [10]: prevent the nitration
LD50 [11]: 375 mg/kg
survival rate [12]: zero survival rate
half-life ([13]; mouse, in vivo, ip, 80 mg/kg): > 40 min

monoethyl-2,2,6,6-tetramethyl-1-oxy-4-piperidylidene-succinate [E-TOPS]
apoptosis induced by TNF-α [14]: reduces apoptosis
inhibition of peroxynitrite-induced (SIN-1) toxicity on cortical neurons [5]: dose dependent inhibition
in vivo half-life compared to Tempol ([13]; intravenous, intramuscular, oral and intraperitoneal administration at 200 mg/kg): increased in vivo half-life compared to Tempol
in vivo plasma half-life compared to Tempol ([13]; mice, administered orally, 125 mg/kg E-TOPS and 80 mg/kg Tempol): extended
in vivo plasma half-life compared to Tempol ([13]; mice, co-administrated intravenously): extended
time with substantially higher activity than Tempol in plasma ([13]; mice, i.p., 125 mg/kg E-TOPS co-administered with Tempol): at least 80 minutes
in vivo plasma half-life compared to Tempol ([13]; mice, intramuscular co-administration): dramatically extended over Tempol for at least 60 minutes
inhibition of nitration of HPA by peroxynitrite [7]: inhibited
inhibition of hemoglobin-induced toxicity of cortical neurons [9]: dose dependent inhibition
neuronal viability ([9]; ETOPS at 10 uM, 1 uM, 0.1 uM): increased neuronal viability
